The record followed here is patent publication US7473790B2 (Pfizer Inc., priority 2003, dated 2009).

The target in the assay is T1, HCV polymerase (Hepatitis C virus genotype 1b, UniProt P26663).
T1 construct: 2.5 pmoles (0.15 μg) HCV polymerase protein in a final volume of 75 μL
T1 sequence (P26663 2420-3010): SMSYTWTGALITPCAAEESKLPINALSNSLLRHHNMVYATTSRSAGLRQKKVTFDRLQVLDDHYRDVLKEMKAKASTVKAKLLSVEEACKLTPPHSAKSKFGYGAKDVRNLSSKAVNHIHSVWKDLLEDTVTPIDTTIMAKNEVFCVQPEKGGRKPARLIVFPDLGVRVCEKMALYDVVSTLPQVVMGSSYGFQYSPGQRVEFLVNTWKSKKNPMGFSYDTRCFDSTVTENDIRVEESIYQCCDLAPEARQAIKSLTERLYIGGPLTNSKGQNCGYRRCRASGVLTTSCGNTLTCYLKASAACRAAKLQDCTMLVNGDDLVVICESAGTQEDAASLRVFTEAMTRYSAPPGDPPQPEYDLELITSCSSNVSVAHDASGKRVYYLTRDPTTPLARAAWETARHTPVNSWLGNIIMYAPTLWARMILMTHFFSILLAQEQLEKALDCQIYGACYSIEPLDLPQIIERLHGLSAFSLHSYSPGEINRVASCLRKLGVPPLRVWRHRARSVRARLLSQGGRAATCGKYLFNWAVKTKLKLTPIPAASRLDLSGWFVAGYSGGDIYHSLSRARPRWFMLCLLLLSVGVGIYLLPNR
In words: HCV polymerase primer/template-directed transcription assay (32P-GTP incorporation, filter binding). Format: biochemical. To be noted: recombinant HCV polymerase; 30 minutes at 30° C.; concentration giving 50% inhibition of polymerase-directed transcription; read-out: IC50. A digest of the protocol:
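IC50s come from triplicate cpm, refit with an enzyme-concentration (30 nM) correction when under 200 nM. Reactions ran 30 min at 30° C in Tris pH 7.2 with MgCl2, 1 μM GTP spiked with α-32P-GTP, biotin-dG12 primer and poly(rC)300 template, with 1% DMSO. Incorporated label was collected on DE filtermats and counted.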
The IC50 is the midpoint of a concentration-inhibition curve. Turning to `CCc1ccc(O)c(CCC2(C3CCCC3)CC(O)=C(Cc3nc4ncccn4n3)C(=O)O2)c1` (stereo not shown) [A(176), 6-Cyclopentyl-6-[2-(5-ethyl-2-hydroxy-phenyl)-ethyl]-4-hydroxy-3-[1,2,4]triazolo[1,5-a]pyrimidin-2-ylmethyl-5,6-dihydro-pyran-2-one], the half-maximal inhibitory concentration (IC50) came to 6 nM.
In the case of `CCc1ccc(OCCOC)c(CCC2(C3CCCC3)CC(O)=C(Cc3nc4nc(C)cc(C)n4n3)C(=O)O2)c1` (stereo not shown) [A(177), 6-Cyclopentyl-3-(5,7-dimethyl-[1,2,4]triazolo[1,5-a]pyrimidin-2-ylmethyl)-6-{2-[5-ethyl-2-(2-methoxy-ethoxy)-phenyl]-ethyl}-4-hydroxy-5,6-dihydro-pyran-2-one], the IC50 was 14 nM.
For `CCc1ccc(OCCOC)c(CCC2(C3CCCC3)CC(=O)CC(=O)O2)c1` (stereo not shown) [A(178), 6-Cyclopentyl-6-{2-[5-ethyl-2-(2-methoxy-ethoxy)-phenyl]-ethyl}-dihydro-pyran-2,4-dione], the IC50 is 1300 nM.
For the compound `CCc1ccc(OCCOC)c(CCC2(C3CCCC3)CC(O)=C(Cc3nc4ncc(C)cn4n3)C(=O)O2)c1` (stereo not shown) [A(179), 6-Cyclopentyl-6-{2-[5-ethyl-2-(2-methoxy-ethoxy)-phenyl]-ethyl}-4-hydroxy-3-(6-methyl-[1,2,4]triazolo[1,5-a]pyrimidin-2-ylmethyl)-5,6-dihydro-pyran-2-one], the IC50 was 5 nM.
On to `CCc1cc(CCC2(C3CCCC3)CC(O)=C(Cc3nc4nc(C)cc(C)n4n3)C(=O)O2)c2c(c1O)CCO2` (stereo not shown) [A(180), 6-Cyclopentyl-3-(5,7-dimethyl-[1,2,4]triazolo[1,5-a]pyrimidin-2-ylmethyl)-6-[2-(5-ethyl-4-hydroxy-2,3-dihydro-benzofuran-7-yl)-ethyl]-4-hydroxy-5,6-dihydro-pyran-2-one], for which the half-inhibitory concentration (IC50) was 10 nM.
For the compound `CCc1cc(CCC2(C3CCCC3)CC(=O)CC(=O)O2)c2c(c1O)CCO2` (stereo not shown) [A(181), 6-Cyclopentyl-6-[2-(5-ethyl-4-hydroxy-2,3-dihydro-benzofuran-7-yl)-ethyl]-dihydro-pyran-2,4-dione], the IC50 worked out at 600 nM.
For `CCc1cc(CCC2(C3CCCC3)CC(O)=C(Cc3nc4ncc(C)cn4n3)C(=O)O2)c2c(c1O)CCO2` (stereo not shown) [A(182), 6-Cyclopentyl-6-[2-(5-ethyl-4-hydroxy-2,3-dihydro-benzofuran-7-yl)-ethyl]-4-hydroxy-3-(6-methyl-[1,2,4]triazolo[1,5-a]pyrimidin-2-ylmethyl)-5,6-dihydro-pyran-2-one], the IC50 worked out at 4 nM.
As for `CCc1cc(CCC2(C3CCCC3)CC(O)=C(Cc3nc4nc(C)cc(C)n4n3)C(=O)O2)ccc1OCCOC` (stereo not shown) [A(183), 6-Cyclopentyl-3-(5,7-dimethyl-[1,2,4]triazolo[1,5-a]pyrimidin-2-ylmethyl)-6-{2-[3-ethyl-4-(2-methoxy-ethoxy)-phenyl]-ethyl}-4-hydroxy-5,6-dihydro-pyran-2-one], the half-maximal inhibitory concentration (IC50) came out at 7 nM.
As to `CCc1cc(CCC2(C3CCCC3)CC(=O)CC(=O)O2)ccc1OCCOC` (stereo not shown) [A(184), 6-Cyclopentyl-6-{2-[3-ethyl-4-(2-methoxy-ethoxy)-phenyl]-ethyl}-dihydro-pyran-2,4-dione], the IC50 amounted to 520 nM.
Consider `CCc1cc(CCC2(C3CCCC3)CC(O)=C(Cc3nc4ncc(C)cn4n3)C(=O)O2)ccc1OCCOC` (stereo not shown) [A(185), 6-Cyclopentyl-6-{2-[3-ethyl-4-(2-methoxy-ethoxy)-phenyl]-ethyl}-4-hydroxy-3-(6-methyl-[1,2,4]triazolo[1,5-a]pyrimidin-2-ylmethyl)-5,6-dihydro-pyran-2-one], for which the concentration for half-maximal inhibition (IC50) was 8 nM.
With `CCc1cc(O)cc(CCC2(C3CCCC3)CC(O)=C(Cc3nc4nc(C)cc(C)n4n3)C(=O)O2)c1` (stereo not shown) [A(186), 6-Cyclopentyl-3-(5,7-dimethyl-[1,2,4]triazolo[1,5-a]pyrimidin-2-ylmethyl)-6-[2-(3-ethyl-5-hydroxy-phenyl)-ethyl]-4-hydroxy-5,6-dihydro-pyran-2-one], the half-maximal inhibitory concentration (IC50) stood at 40 nM.
Take `CCc1cc(CCC2(C3CCCC3)CC(O)=C(Cc3nc4nc(C)cc(C)n4n3)C(=O)O2)c(O)cc1OC` (stereo not shown) [A(187), 6-Cyclopentyl-3-(5,7-dimethyl-[1,2,4]triazolo[1,5-a]pyrimidin-2-ylmethyl)-6-[2-(5-ethyl-2-hydroxy-4-methoxy-phenyl)-ethyl]-4-hydroxy-5,6-dihydro-pyran-2-one]: the IC50 came out at 4 nM.
Turning to `Cc1cc(C)n2nc(CC3=C(O)CC(CCc4ccc(C5(C#N)CCCC5)c(F)c4)(C4CCCC4)OC3=O)nc2n1` (stereo not shown) [A(188), 1-(4-{2-[2-Cyclopentyl-5-(5,7-dimethyl-[1,2,4]triazolo[1,5-a]pyrimidin-2-ylmethyl)-4-hydroxy-6-oxo-3,6-dihydro-2H-pyran-2-yl]-ethyl}-2-fluoro-phenyl)-cyclopentanecarbonitrile], the IC50 was 6 nM.
With `N#CC1(c2ccc(CCC3(C4CCCC4)CC(=O)CC(=O)O3)cc2F)CCCC1` (stereo not shown) [A(189), 1-{4-[2-(2-Cyclopentyl-4,6-dioxo-tetrahydro-pyran-2-yl)-ethyl]-2-fluoro-phenyl}-cyclopentanecarbonitrile], the half-maximal inhibitory concentration (IC50) turned out to be 2900 nM.
On to `Cc1cnc2nc(CC3=C(O)CC(CCc4ccc(C5(C#N)CCCC5)c(F)c4)(C4CCCC4)OC3=O)nn2c1` (stereo not shown) [A(190), 1-(4-{2-[2-Cyclopentyl-4-hydroxy-5-(6-methyl-[1,2,4]triazolo[1,5-a]pyrimidin-2-ylmethyl)-6-oxo-3,6-dihydro-2H-pyran-2-yl]-ethyl}-2-fluoro-phenyl)-cyclopentanecarbonitrile], for which the IC50 worked out at 11 nM.
In the case of `N#CC1(c2ccc(CCC3(C4CCCC4)CC(O)=C(Cc4nc5ncc(Cl)cn5n4)C(=O)O3)cc2F)CCCC1` (stereo not shown) [A(191), 1-(4-{2-[5-(6-Chloro-[1,2,4]triazolo[1,5-a]pyrimidin-2-ylmethyl)-2-cyclopentyl-4-hydroxy-6-oxo-3,6-dihydro-2H-pyran-2-yl]-ethyl}-2-fluoro-phenyl)-cyclopentanecarbonitrile], the IC50 was 17 nM.
For the compound `COCc1cc(CCC2(C3CCCC3)CC(O)=C(Cc3nc4nc(C)cc(C)n4n3)C(=O)O2)ccc1O` (stereo not shown) [A(192), 6-Cyclopentyl-3-(5,7-dimethyl-[1,2,4]triazolo[1,5-a]pyrimidin-2-ylmethyl)-4-hydroxy-6-[2-(4-hydroxy-3-methoxymethyl-phenyl)-ethyl]-5,6-dihydro-pyran-2-one], the IC50 was 28 nM.
As for `Cc1cc(C)n2nc(CC3=C(O)CC(CCc4ccc(O)c(CO)c4)(C4CCCC4)OC3=O)nc2n1` (stereo not shown) [A(193), 6-Cyclopentyl-3-(5,7-dimethyl-[1,2,4]triazolo[1,5-a]pyrimidin-2-ylmethyl)-4-hydroxy-6-[2-(4-hydroxy-3-hydroxymethyl-phenyl)-ethyl]-5,6-dihydro-pyran-2-one], the 50% inhibitory concentration (IC50) worked out at 98 nM.
Take `COCc1cc(CCC2(C3CCCC3)CC(=O)CC(=O)O2)ccc1O` (stereo not shown) [A(194), 6-Cyclopentyl-6-[2-(4-hydroxy-3-methoxymethyl-phenyl)-ethyl]-dihydro-pyran-2,4-dione]: the IC50 came out at 6900 nM.
Turning to `O=C1CC(=O)OC(CCc2ccc(O)c(CO)c2)(C2CCCC2)C1` (stereo not shown) [A(195), 6-Cyclopentyl-6-[2-(4-hydroxy-3-hydroxymethyl-phenyl)-ethyl]-dihydro-pyran-2,4-dione], the IC50 was determined as 11000 nM.
In the case of `CC(C)(C#N)c1ccc(CCC2(C3CCCC3)CC(O)=C(Cc3nc4ncc(Cl)cn4n3)C(=O)O2)cc1Cl` (stereo not shown) [A(198), 2-(2-Chloro-4-{2-[5-(6-chloro-[1,2,4]triazolo[1,5-a]pyrimidin-2-ylmethyl)-2-cyclopentyl-4-hydroxy-6-oxo-3,6-dihydro-2H-pyran-2-yl]-ethyl}-phenyl)-2-methyl-propionitrile], the IC50 was determined as 16 nM.
Next, `Cc1cnc2nc(CC3=C(O)CC(CCc4ccc(C(C)(C)C#N)c(Cl)c4)(C4CCCC4)OC3=O)nn2c1` (stereo not shown) [A(199), 2-(2-Chloro-4-{2-[2-cyclopentyl-4-hydroxy-5-(6-methyl-[1,2,4]triazolo[1,5-a]pyrimidin-2-ylmethyl)-6-oxo-3,6-dihydro-2H-pyran-2-yl]-ethyl}-phenyl)-2-methyl-propionitrile]: 10 nM.
Next, `CCc1cc(CCC2(C3CCCC3)CC(O)=C(Cc3nc4ncccn4n3)C(=O)O2)c(OC)cc1O` (stereo not shown) [A(207), 6-cyclopentyl-6-[2-(5-ethyl-4-hydroxy-2-methoxyphenyl)ethyl]-4-hydroxy-3-([1,2,4]triazolo[1,5-a]pyrimidin-2-ylmethyl)-5,6-dihydro-2H-pyran-2-one]: 4 nM; `CC(C)(O)c1ccc(CCC2(C3CCCC3)CC(O)=C(Cc3nc4ncc(Cl)cn4n3)C(=O)O2)cc1F` (stereo not shown) [A(214), 3-[(6-chloro[1,2,4]triazolo[1,5-a]pyrimidin-2-yl)methyl]-6-cyclopentyl-6-{2-[3-fluoro-4-(1-hydroxy-1-methylethyl)phenyl]ethyl}-4-hydroxy-5,6-dihydro-2H-pyran-2-one]: 38 nM; `CC(C)(O)c1ccc(CCC2(C3CCCC3)CC(=O)CC(=O)O2)cc1F` (stereo not shown) [A(215), 6-cyclopentyl-6-{2-[3-fluoro-4-(1-hydroxy-1-methylethyl)phenyl]ethyl}dihydro-2H-pyran-2,4(3H)-dione]: 4900 nM.
Take `Cc1cnc2nc(CC3=C(O)CC(CCc4ccc(C(C)(C)O)c(F)c4)(C4CCCC4)OC3=O)nn2c1` (stereo not shown) [A(216)]: the half-inhibitory concentration (IC50) amounted to 45 nM.
Next, `Cc1cc(C)n2nc(CC3=C(O)CC(CCc4ccc(C(C)(C)O)c(F)c4)(C4CCCC4)OC3=O)nc2n1` (stereo not shown) [A(217), 6-cyclopentyl-3-[(5,7-dimethyl[1,2,4]triazolo[1,5-a]pyrimidin-2-yl)methyl]-6-{2-[3-fluoro-4-(1-hydroxy-1-methylethyl)phenyl]ethyl}-4-hydroxy-5,6-dihydro-2H-pyran-2-one]: 14 nM; `CC(C)(O)c1ccc(CCC2(C3CCCC3)CC(O)=C(Cc3nc4ncccn4n3)C(=O)O2)cc1F` (stereo not shown) [A(220), 6-cyclopentyl-6-{2-[3-fluoro-4-(1-hydroxy-1-methylethyl)phenyl]ethyl}-4-hydroxy-3-([1,2,4]triazolo[1,5-a]pyrimidin-2-ylmethyl)-5,6-dihydro-2H-pyran-2-one]: 172 nM.
